According to patent publication US20170196821A1, “Method of Inhibiting Mucin Secretion” (Reckitt Benckiser LLC, priority 2009, published 2017):
Entries after “also recorded” stand apart in the source; their conditions may differ.

Columns and labels:
apical mucus secretions = assay: Rheologic measurements of apical mucus secretions from EpiAirway cultures; format: cell-based, human
Protocol: EpiAirway cultures (normal human bronchial epithelial) cells grown on Millipore Transwells, 1 or 4.2 cm^2 surface area. The cells were purchased from MatTek, and were cultured at air-liquid interface for two (mucus synthesis and secretion) or three (mucociliary transport and mucus rheology) weeks prior to use. Following the analysis of clearance, mucus was harvested from the apical surface of the cultures, without dilution. The rheological properties of apical mucus secretions (20 μL) were measured using an AR1000 controlled stress rheometer (TA Instruments, New Castle, Del.) using a parallel plate geometry. The dynamic linear viscoelastic behavior was determined from the strain response to an oscillating stress and reported as a storage or elastic modulus (G′), and loss or viscous (G″) modulus, as a function of frequency ω such that viscosity, η′=G″/ω. Rheologic data can also be presented using vectorial notation as tangent δ which is the ratio of viscosity to elasticity and G*, the vector sum of viscosity and elasticity (mechanical impedance). When stress in the linear range is used to evaluate the materials, the material properties are independent of stress. In order to conduct a frequency sweep from 0.1 to 1000 rad/s, viscoelasticity was evaluated using a creep test at 0.5 Pa for 2 minutes. The strain response was fitted to a discrete relaxation spectrum, transformed to the retardation spectrum, and then to the storage and loss moduli, as a function of frequency, using methods developed by the PI. The linear viscoelasticity was evaluated at 1 and 100 rad/s and an oscillatory stress sweep and steady shear flow experiments were used to evaluate the behavior in the non-linear ranges. The oscillatory sweep data were analyzed by observing the stress where G′ and G″ crossed. […] All rheologic measurements were made by technicians who were blinded to the treatment group origin. For rheology experiments, data were analyzed using the StatView™ 5 statistics package. Raw data were visually confirmed to be normally distributed about the mean. […]

[1] = tested on: EpiAirway cultures (normal human bronchial epithelial) cells; assay: Mucociliary clearance: rate of movement of endogenous cell debris on EpiAirway cultures; format: cell-based
Protocol: EpiAirway cultures (normal human bronchial epithelial) cells grown on Millipore Transwells, 1 or 4.2 cm^2 surface area. The cells were purchased from MatTek, and were cultured at air-liquid interface for two (mucus synthesis and secretion) or three (mucociliary transport and mucus rheology) weeks prior to use. For mucociliary clearance, a stock guaifenesin solution of 2 mg/mL in culture medium was prepared in the morning of each experiment and kept cold until dilution into warmed medium to the target concentrations of 0.2, 2, 20 or 200 μg/mL. The medium in the basolateral compartment of each culture was replaced with the GGE-containing medium, and the cultures were returned to the 37° C., 5% CO2 incubator for as the times indicated. The experiments were repeated three times on independent cultures. Cultures (4.2 cm^2) were exposed to basolateral guaifenesin for 1 or 6 hr. […] The rate of movement of endogenous cell debris was analyzed on the video images using a transparent template overlay on the video images and a stopwatch to measure at least 5 particles on each culture, for a total of between 30 and 45 measurements per condition. For mucociliary clearance, differences between control and guaifenesin treatment groups were assessed by comparing the means using ANOVA, with a Bonferroni post-test to assess differences from the controls tested at the same time after treatment. […]

MUC5AC mucins = assay: MUC5AC mucin secretion and production by ELISA in EpiAirway (NHBE) cultures at air/liquid interface; format: cell-based, human
Protocol: EpiAirway cultures (normal human bronchial epithelial) cells grown on Millipore Transwells, 1 or 4.2 cm^2 surface area. The cells were purchased from MatTek, and were cultured at air-liquid interface for two (mucus synthesis and secretion) or three (mucociliary transport and mucus rheology) weeks prior to use. GUAIFENESIN solutions were prepared by dissolving in PBS (phosphate buffered saline) immediately before treatment of the cells. MUCSAC mucins were quantified by ELISA using 45M1 antibody (Labvision, Fremont, Calif.). Confluent 1 cm^2 NHBE cells grown on an air/liquid interface were washed from the apical surface with 200 μL PBS and incubated with fresh complete growth medium added to the basal chamber. Cultures were incubated 24 hours to collect the apical fluid (pretreatment sample or PT) by adding 100 μL PBS to the apical surface of the cultures. PBS was added to dilute the highly viscous, thin mucus layer on the surface. Because of the small size of the insert, it was not feasible to collect a sufficient amount of mucus for both pharmacology and rheology without the addition of PBS. After collecting 100 μL of the diluted mucus samples (PT), cultures were divided into three groups (6 hr, 24 hr and 48 hr), 16 inserts per group, and treated with varying concentrations of guaifenesin (0, 0.2, 2, 20 μg/mL) for each time group, 4 inserts per each dose. Thus, a total of 48 inserts were used for this study (4 inserts/dose×4 doses/time point×3 time points). The apical fluid was collected at 30 minutes following drug treatment from all the cultures to see whether guaifenesin affects the “secretion” of mucins. The apical mucus sample was collected in two steps—first by adding 100 μL PBS to the apical surface (1st wash) and then by adding 100 μL PBS containing 5 mM dithiothreitol (DTT) (2nd wash). Samples from each wash were assayed for MUC5AC content and the sum of the two values (the 1st and 2nd wash) was expressed as the “released MUC5AC” of the culture. At the three different time points (i.e., 6, 24, and 48 hr), cultures were washed to collect the apical fluid as described above (“released mucin”) and lysed using a lysis buffer (PBS, pH 7.2, […], 2 mM EDTA, 1 mM PSMF and 5 mM DTT) (“cellular mucin”). The amount of mucin in each sample (either secreted, released or cell lysate) was divided by the amount of mucin in the PT sample collected from the same well in order to obtain a “secretory index” to compensate for the variations among the cultures. The treatment protocol is depicted in FIG. 1. For mucin secretion, differences between control and guaifenesin treatment groups were assessed by comparing the means using Student's t-test for unpaired samples and p<0.05 was considered significant. All the values in the figures represent means ±SEM of 4 cultures unless otherwise stated. *p<0.05, **p<0.01

[2] = tested on: EpiAirway cultures (normal human bronchial epithelial) cells; assay: Viability: metabolic activity by Water Soluble Tetrazolium (WST) assay; format: cell-based; settings: 1 or 6 hr treatment
Protocol: EpiAirway cultures (normal human bronchial epithelial) cells grown on Millipore Transwells, 1 or 4.2 cm^2 surface area. The cells were purchased from MatTek, and were cultured at air-liquid interface for two (mucus synthesis and secretion) or three (mucociliary transport and mucus rheology) weeks prior to use.
The apical surfaces of the cultures were then washed with PBS and the metabolic activity, an indicator of viability, was measured using the Water Soluble Tetrazolium (WST) assay (Boehringer).
Metabolic activity was assessed using the WST assay, separately added to the apical or basal surfaces of the cultures.

[3] = 24 hour treatment, 2 μg/mL or 20 μg/mL

`COc1ccccc1OCC(O)CO` (centres unmarked) [guaifenesin, 3-(2-methoxyphenoxy)-1,2-propanediol] was tested, and the “viscosity, elasticity and complex modulus (G*) of mucus” value (“viscosity … of mucus” below) (apical mucus secretions; 1 rad/s (ciliary frequency), 1 hour, p<0.05) was “dose-dependent decrease”, the “viscosity … of mucus” value (apical mucus secretions; 1 rad/s (ciliary frequency), 6 hours, p<0.01) was “dose-dependent decrease” and the “viscosity … of mucus” value (apical mucus secretions; 100 rad/s (corresponding to cough)) was “not significantly”. The “mucociliary clearance (mobility of cellular debris on culture surface)” value ([1]; 1 hr treatment, only 2 μg/ml statistically significant, little dose-response) was “appeared to increase the mobility of the cellular debris”, the “mucociliary clearance (movement of surface material)” value ([1]; 6 hr treatment, all three concentrations tested, strong trend to a dose response) was “significantly faster than the control” and the “secreted MUC5AC versus control” value (MUC5AC mucins; 30 min treatment, 0.2, 2, 20 μg/mL) was “no significant difference”. The “total amounts of mucins produced” value (MUC5AC mucins; 6 hour treatment, 2 μg/ml and 20 μg/ml) was “significantly (p<0.01) suppressed; also recorded: suppressed the production of mucins”, the “amounts of mucins released” value (MUC5AC mucins; 6 hours treatment, NHBE cells) was “did not affect” and the mucin production (MUC5AC mucins; [3]) was “significantly suppressed; also recorded: suppressed the production of mucins”. The mucin release (MUC5AC mucins; [3]) was “significantly suppressed; also recorded: significant (p<0.05) decrease in mucin release”, the “amount of mucin released” value (MUC5AC mucins; 48 hours treatment) was “did not seem to be significantly affected” and the production of mucins (MUC5AC mucins; 48 hours treatment, 2 μg/mL and 20 μg/mL) was “significantly (p<0.01) suppressed; also recorded: suppressed the production of mucins”. For the same molecule, the “viability of the cells (WST assay)” value [2] was “no adverse effect on the viability” and the “metabolic activity (WST assay)” value ([2]; did not reach statistical significance) was “trend to increased metabolic activity”.
